Source: patent publication US7419780B2, “Methods and assays for screening protein targets” (The Trustees of Columbia University in the City of New York, priority 2000, dated 2008)

Legend:
Assay type in all cases: cell-based, S. cerevisiae
Conditions in all cases: 1 uM small molecule, difference to activity without small molecule, average of two trials
[1] = biological target: T1, LexA (GSG)2eDHFR / B42 rGR2 (UniProt P06536+P0ABQ4, C656G/F620S); test: β-galactosidase activity assay, strain V498Y
T1 construct: rat Glucocorticoid Receptor (aa 524-795) with point mutations; expressed in transfected cells; host or cells: S. cerevisiae FY250
T1 sequence (P0ABQ4 1-159): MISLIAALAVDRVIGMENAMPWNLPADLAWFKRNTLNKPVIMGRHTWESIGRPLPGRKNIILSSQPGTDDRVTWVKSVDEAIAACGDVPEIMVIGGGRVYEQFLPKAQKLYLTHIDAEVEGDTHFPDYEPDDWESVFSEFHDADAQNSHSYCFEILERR
T1 sequence (P06536 524-795 F620S/C656G limits assumed): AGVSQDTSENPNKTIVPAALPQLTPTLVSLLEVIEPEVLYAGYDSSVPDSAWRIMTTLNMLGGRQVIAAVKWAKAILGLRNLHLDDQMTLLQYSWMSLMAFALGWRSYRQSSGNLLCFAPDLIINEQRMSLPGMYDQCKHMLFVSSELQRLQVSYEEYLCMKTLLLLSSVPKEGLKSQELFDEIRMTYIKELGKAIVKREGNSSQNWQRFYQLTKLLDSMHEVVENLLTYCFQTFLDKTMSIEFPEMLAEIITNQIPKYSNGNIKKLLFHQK
Description: (§1) Table III explains the components of each strain. Each strain was constructed from the parent yeast strain FY250 and also contains the pMW106 plasmid, which has the LacZ reporter gene that is turned on only in when the LexA DNA binding domain and the B42 activation are brought in tot he vicinity of each other. We use several different strains because we use DHFR from two different species, mDHFR is from murine, while eDHFR is from E. coli. We are asl oable to switch the small moleculebinding domains. For example, the strain containing LexA-eDHFR with B42-rGH2 is a different strain and behaves differently from the strain containing LexA-rGR2 with B42-eDHFR. We also put in short 6 amino acid linkers between the two domains of our protein chimeras and thus these are different strain as well.
(§2) The results in Table IV are averages of two separate trials. Each strain was examined with small molecules and without small molecules. The absolute activity is given as the β-galactisidase activity […]. The average β-galactosidse activity for a strain without small molecule (i.e. the negative control) was about 100 β-galactosidase units.

[2] = biological target: T2, LexA mDHFR / B42 (GSG)rGR2 (UniProt P00375+P06536, C656G/F620S); test: β-galactosidase activity assay, strain V497Y
T2 construct: rat Glucocorticoid Receptor (aa 524-795) with point mutations; expressed in transfected cells; host or cells: S. cerevisiae FY250
T2 sequence (P00375 1-187): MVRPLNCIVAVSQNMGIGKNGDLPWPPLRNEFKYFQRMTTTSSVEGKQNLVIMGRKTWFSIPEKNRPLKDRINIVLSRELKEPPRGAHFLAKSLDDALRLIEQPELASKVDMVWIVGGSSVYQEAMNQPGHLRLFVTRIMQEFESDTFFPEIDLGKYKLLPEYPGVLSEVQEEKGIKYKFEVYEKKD
T2 sequence (P06536 524-795 F620S/C656G limits assumed): T1 sequence (P06536 524-795 F620S/C656G limits assumed)
Description: as §1, §2

[3] = biological target: T3, LexA (GSG)2eDHFR / B42 gly6rGR2 (UniProt P06536+P0ABQ4, C656G/F620S); test: β-galactosidase activity assay, strain V499Y
T3 construct: rat Glucocorticoid Receptor (aa 524-795) with point mutations; expressed in transfected cells; host or cells: S. cerevisiae FY250
T3 sequence (P0ABQ4 1-159): T1 sequence (P0ABQ4 1-159)
T3 sequence (P06536 524-795 F620S/C656G limits assumed): T1 sequence (P06536 524-795 F620S/C656G limits assumed)
Description: as §1, §2

[4] = biological target: T4, LexA (GSG)2rGR2 / B42 (GSG)2mDHFR (UniProt P00375+P06536, C656G/F620S); test: β-galactosidase activity assay, strain V512Y
T4 construct: rat Glucocorticoid Receptor (aa 524-795) with point mutations; expressed in transfected cells; host or cells: S. cerevisiae FY250
T4 sequence (P06536 524-795 F620S/C656G limits assumed): T1 sequence (P06536 524-795 F620S/C656G limits assumed)
T4 sequence (P00375 1-187): T2 sequence (P00375 1-187)
Description: as §1, §2

[5] = biological target: T5, LexA mDHFR / B42 rGR2 (UniProt P00375+P06536, C656G/F620S); test: β-galactosidase activity assay, strain V495Y
T5 construct: rat Glucocorticoid Receptor (aa 524-795) with point mutations; expressed in transfected cells; host or cells: S. cerevisiae FY250
T5 sequence (P00375 1-187): T2 sequence (P00375 1-187)
T5 sequence (P06536 524-795 F620S/C656G limits assumed): T1 sequence (P06536 524-795 F620S/C656G limits assumed)
Description: as §1, §2

[6] = biological target: T6, LexA mDHFR / B42 gly6rGR2 (UniProt P00375+P06536, C656G/F620S); test: β-galactosidase activity assay, strain V496Y
T6 construct: rat Glucocorticoid Receptor (aa 524-795) with point mutations; expressed in transfected cells; host or cells: S. cerevisiae FY250
T6 sequence (P00375 1-187): T2 sequence (P00375 1-187)
T6 sequence (P06536 524-795 F620S/C656G limits assumed): T1 sequence (P06536 524-795 F620S/C656G limits assumed)
Description: as §1, §2

[7] = biological target: T7, LexA (GSG)2rGR2 / B42 (GSG)2eDHFR (UniProt P06536+P0ABQ4, C656G/F620S); test: β-galactosidase activity assay, strain V510Y
T7 construct: rat Glucocorticoid Receptor (aa 524-795) with point mutations; expressed in transfected cells; host or cells: S. cerevisiae FY250
T7 sequence (P06536 524-795 F620S/C656G limits assumed): T1 sequence (P06536 524-795 F620S/C656G limits assumed)
T7 sequence (P0ABQ4 1-159): T1 sequence (P0ABQ4 1-159)
Description: as §1, §2

[8] = biological target: T8, LexA eDHFR / B42 rGR2 (UniProt P06536+P0ABQ4, C656G/F620S); test: β-galactosidase activity assay, strain V493Y
T8 construct: rat Glucocorticoid Receptor (aa 524-795) with point mutations; expressed in transfected cells; host or cells: S. cerevisiae FY250
T8 sequence (P0ABQ4 1-159): T1 sequence (P0ABQ4 1-159)
T8 sequence (P06536 524-795 F620S/C656G limits assumed): T1 sequence (P06536 524-795 F620S/C656G limits assumed)
Description: as §1, §2

[9] = biological target: T9, LexA eDHFR / B42 (GSG)rGR2 (UniProt P06536+P0ABQ4, C656G/F620S); test: β-galactosidase activity assay, strain V494Y
T9 construct: rat Glucocorticoid Receptor (aa 524-795) with point mutations; expressed in transfected cells; host or cells: S. cerevisiae FY250
T9 sequence (P0ABQ4 1-159): T1 sequence (P0ABQ4 1-159)
T9 sequence (P06536 524-795 F620S/C656G limits assumed): T1 sequence (P06536 524-795 F620S/C656G limits assumed)
Description: as §1, §2

[10] = biological target: T10, LexA rGR2 / B42 (GSG)2eDHFR (UniProt P06536+P0ABQ4, C656G/F620S); test: β-galactosidase activity assay, strain V509Y
T10 construct: expressed in transfected cells; host or cells: S. cerevisiae FY250 with pMW106 lacZ reporter
T10 sequence (P06536 524-795 F620S/C656G limits assumed): T1 sequence (P06536 524-795 F620S/C656G limits assumed)
T10 sequence (P0ABQ4 1-159): T1 sequence (P0ABQ4 1-159)
Description: as §1, §2

## C[C@@H]1C[C@H]2C3CCC4=CC(=O)C=C[C@]4(C)[C@@]3(F)[C@@H](O)C[C@]2(C)[C@@]1(O)C(=O)NCCSCCCCCCCCSCC[C@H](NC(=O)c1ccc(N(C)Cc2cnc3nc(N)nc(N)c3n2)cc1)C(=O)O (stereo partly shown) [D8M]
[1]
  B-gal activity: 5442 β-galactosidase units
[2]
  B-gal activity: 24 β-galactosidase units
[3]
  B-gal activity: 7012 β-galactosidase units
[4]
  B-gal activity: −4 β-galactosidase units
[5]
  B-gal activity: 38 β-galactosidase units
[6]
  B-gal activity: −27 β-galactosidase units
[7]
  B-gal activity: 3163 β-galactosidase units
[8]
  B-gal activity: 5555 β-galactosidase units
[9]
  B-gal activity: 10568 β-galactosidase units
[10]
  B-gal activity: 2734 β-galactosidase units
